What was measured:
[1] = Cytotoxicity on RD host cells; format: cell-based; conditions: human, RD cells
[2] = Cytotoxicity on primary human foreskin fibroblasts; conditions: human
[3] = target: cytosolic progesterone receptors (PR) (Homo sapiens, UniProt P06401); conditions: Peeters et al., 2008; cited from earlier work
[4] = Toxicity in RAW267.4 cells (neutral red); conditions: mouse, RAW267.4 cells, CC50, Neutral Red (Toxicity), Example 11
[5] = system: Vero 76
[6] = system: Vero

cytosolic progesterone receptors (PR), sequence (P06401 whole entry): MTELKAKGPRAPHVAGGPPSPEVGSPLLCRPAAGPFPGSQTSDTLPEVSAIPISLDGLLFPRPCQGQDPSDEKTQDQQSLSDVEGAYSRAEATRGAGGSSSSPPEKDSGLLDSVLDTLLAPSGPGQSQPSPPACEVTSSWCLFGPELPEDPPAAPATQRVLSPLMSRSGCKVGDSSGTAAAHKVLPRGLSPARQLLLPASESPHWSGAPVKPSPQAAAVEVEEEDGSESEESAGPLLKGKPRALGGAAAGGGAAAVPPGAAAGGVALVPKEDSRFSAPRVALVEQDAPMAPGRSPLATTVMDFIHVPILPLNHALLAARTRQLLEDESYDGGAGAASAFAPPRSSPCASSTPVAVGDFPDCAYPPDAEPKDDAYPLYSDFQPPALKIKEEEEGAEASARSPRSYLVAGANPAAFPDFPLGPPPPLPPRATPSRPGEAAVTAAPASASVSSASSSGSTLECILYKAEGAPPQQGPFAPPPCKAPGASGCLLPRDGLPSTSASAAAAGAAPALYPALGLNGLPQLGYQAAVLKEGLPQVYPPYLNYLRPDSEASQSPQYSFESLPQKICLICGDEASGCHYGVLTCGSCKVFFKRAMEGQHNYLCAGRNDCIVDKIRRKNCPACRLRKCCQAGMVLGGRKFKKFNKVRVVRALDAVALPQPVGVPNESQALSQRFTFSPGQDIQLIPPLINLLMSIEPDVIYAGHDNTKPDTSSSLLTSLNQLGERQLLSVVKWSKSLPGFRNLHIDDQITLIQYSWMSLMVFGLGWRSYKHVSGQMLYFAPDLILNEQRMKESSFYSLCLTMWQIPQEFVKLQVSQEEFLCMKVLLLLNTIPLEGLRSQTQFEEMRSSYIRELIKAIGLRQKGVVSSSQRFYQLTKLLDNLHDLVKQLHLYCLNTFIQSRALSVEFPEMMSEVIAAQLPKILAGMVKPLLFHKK

In the case of CC#C[C@]1(O)CC[C@H]2[C@@H]3CCC4=CC(=O)CCC4=C3[C@@H](c3ccc4c(c3)OCO4)C[C@@]21C [PT150, (11β,17β)-11-(1,3-benzodioxol-5-yl)-17-hydroxy-17-(1-propynyl)-estra-4,9-dien-3-one], the CC50 ([1]; Cytotoxicity 50% CC50, Enterovirus D68 screen, Tables 5-6) is reported as 10.2 µM, the CC50 ([1]; Enterovirus 68 screen, Table 4, read-out: CC50) is reported as 10.2 µM and the CC50 ([1]; Enterovirus D68 screen, Neutral red, read-out: CC50) is reported as 2.6 µg/mL. The CC50 ([1]; Enterovirus D68 screen, Visual, read-out: CC50) was 3.2 µg/mL, the CC50 ([2]; primary HFF-1 human foreskin fibroblasts, CC50) was over 150 µM and the CC50 ([2]; primary HFF-1 human foreskin fibroblasts, CC50, Cytotoxicity control, Primary HFF-1, CellTiter-Glo) was over 150 µM. The CC50 ([2]; primary human foreskin fibroblasts (HFF / HFF-1), CC50, HFF / HFF-1 primary cells) was over 150 µM, the CC50 ([2]; primary human foreskin fibroblasts (HFF-1), CC50, Herpes simplex virus type 1 screen, Primary HFF-1, CellTiter-Glo) was over 150 µM and the “value for the cytosolic progesterone receptors (PR)” value [3] was 6.4%. For the same compound, the CC50 [4] was 33 µM.

For CC#CC1(O)CCC2C3CCC4=CC(=NNC(N)=S)CCC4=C3C(c3ccc4c(c3)OCO4)CC21C.CC#CC1(O)CCC2C3CCC4=CC(=O)CCC4=C3C(c3ccc4c(c3)OCO4)CC21C.CC(C)=O.CCO.O (stereo not drawn) [PT155, ⅓ (11β,17β)-17-Hydroxy-11-[3,4-(methylenedioxy)phenyl]-17-(1-propyn-1-yl)estra-4,9-dien-3-one (ORG34517)×(2EZ)-2-{(11β,17β)-17-hydroxy-11-[3,4-(methylenedioxy)phenyl]-17-(1-propyn-1-yl)estra-4,9-dien-3-ylidene}hydrazinecarbothioamide [71.8% (E), 28.2% (Z)] hemihydrate×¾% acetone× ⅛ ethanol], the CC50 [5] was 45.4 µM and the “cellular growth at fixed 100 μM concentration” value [6] was “(96.1) %”.
